Assay results from patent US20090298820A1, “3-SUBSTITUTED-1H-PYRROLO[2,3-B]PYRIDINE AND 3-SUBSTITUTED-1H-PYRROLO[3,2-B]PYRIDINE COMPOUNDS, THEIR USE AS MTOR KINASE AND PI3 KINASE INHIBITORS, AND THEIR SYNTHESES” (Wyeth, priority 2008, published 2009).

Key:
[1] = biological target: mTOR (Homo sapiens, UniProt P42345); assay: mTOR enzyme assay (DELFIA format, His6-S6K substrate); assay type: biochemical; conditions: read-out: mTOR Kinase Median IC50
[2] = biological target: PI3Kα (Homo sapiens, UniProt P42336); assay: PI3K-alpha fluorescence polarization assay; assay type: biochemical; conditions: read-out: PI3Kα Median IC50
PI3Kα, sequence (P42336 whole entry, species assumed): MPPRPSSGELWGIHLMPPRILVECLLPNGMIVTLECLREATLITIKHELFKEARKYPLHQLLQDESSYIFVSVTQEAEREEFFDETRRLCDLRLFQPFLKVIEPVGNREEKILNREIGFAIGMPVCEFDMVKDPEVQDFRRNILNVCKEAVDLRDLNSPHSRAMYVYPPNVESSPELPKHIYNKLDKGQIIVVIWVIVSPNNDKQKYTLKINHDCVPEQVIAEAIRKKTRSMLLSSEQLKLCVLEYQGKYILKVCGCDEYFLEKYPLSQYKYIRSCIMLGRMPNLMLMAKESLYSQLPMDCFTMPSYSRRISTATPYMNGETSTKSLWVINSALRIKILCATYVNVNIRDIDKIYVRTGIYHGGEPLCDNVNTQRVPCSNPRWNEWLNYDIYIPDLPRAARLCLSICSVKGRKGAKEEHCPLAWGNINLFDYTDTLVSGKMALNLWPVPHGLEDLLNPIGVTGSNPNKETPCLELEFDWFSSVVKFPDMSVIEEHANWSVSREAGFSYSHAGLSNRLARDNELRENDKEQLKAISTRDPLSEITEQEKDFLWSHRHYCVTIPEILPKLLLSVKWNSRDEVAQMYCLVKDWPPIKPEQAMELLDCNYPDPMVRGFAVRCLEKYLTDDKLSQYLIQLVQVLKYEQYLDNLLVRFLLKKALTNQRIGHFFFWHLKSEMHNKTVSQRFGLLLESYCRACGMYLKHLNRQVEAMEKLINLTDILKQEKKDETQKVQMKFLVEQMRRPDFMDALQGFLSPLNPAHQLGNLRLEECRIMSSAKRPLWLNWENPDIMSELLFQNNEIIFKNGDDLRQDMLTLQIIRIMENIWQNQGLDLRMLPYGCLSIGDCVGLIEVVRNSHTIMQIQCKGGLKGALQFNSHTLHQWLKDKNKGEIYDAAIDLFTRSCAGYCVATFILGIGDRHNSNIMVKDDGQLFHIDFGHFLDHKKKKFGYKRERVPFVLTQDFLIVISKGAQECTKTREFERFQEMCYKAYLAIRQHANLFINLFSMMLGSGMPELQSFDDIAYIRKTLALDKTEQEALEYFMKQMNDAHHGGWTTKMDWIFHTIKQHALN
PI3Kα, sequence (P27986 whole entry partner, species assumed): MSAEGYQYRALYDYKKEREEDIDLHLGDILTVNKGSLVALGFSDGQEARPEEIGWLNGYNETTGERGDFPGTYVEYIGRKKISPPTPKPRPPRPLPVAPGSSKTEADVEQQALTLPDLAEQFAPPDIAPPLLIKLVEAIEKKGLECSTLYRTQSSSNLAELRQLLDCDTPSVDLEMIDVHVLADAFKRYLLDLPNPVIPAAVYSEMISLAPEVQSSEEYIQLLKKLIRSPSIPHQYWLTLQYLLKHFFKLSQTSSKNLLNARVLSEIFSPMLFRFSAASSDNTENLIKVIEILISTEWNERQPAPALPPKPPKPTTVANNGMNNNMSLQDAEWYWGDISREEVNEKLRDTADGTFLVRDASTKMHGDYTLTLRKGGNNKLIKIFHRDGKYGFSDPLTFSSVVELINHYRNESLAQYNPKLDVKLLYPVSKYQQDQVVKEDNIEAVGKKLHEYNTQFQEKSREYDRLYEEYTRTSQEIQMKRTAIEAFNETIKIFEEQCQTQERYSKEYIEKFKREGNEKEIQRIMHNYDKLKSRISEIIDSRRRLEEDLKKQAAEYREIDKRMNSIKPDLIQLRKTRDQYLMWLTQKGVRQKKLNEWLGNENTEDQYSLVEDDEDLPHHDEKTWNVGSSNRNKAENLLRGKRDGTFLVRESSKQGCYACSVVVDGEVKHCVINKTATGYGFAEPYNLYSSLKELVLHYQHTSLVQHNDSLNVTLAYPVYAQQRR

[3] = biological target: PI3Kγ (Homo sapiens, UniProt P48736); assay: PI3K-gamma fluorescence polarization assay; assay type: biochemical; conditions: read-out: PI3Kγ Median IC50
PI3Kγ, sequence (P48736 whole entry, species assumed): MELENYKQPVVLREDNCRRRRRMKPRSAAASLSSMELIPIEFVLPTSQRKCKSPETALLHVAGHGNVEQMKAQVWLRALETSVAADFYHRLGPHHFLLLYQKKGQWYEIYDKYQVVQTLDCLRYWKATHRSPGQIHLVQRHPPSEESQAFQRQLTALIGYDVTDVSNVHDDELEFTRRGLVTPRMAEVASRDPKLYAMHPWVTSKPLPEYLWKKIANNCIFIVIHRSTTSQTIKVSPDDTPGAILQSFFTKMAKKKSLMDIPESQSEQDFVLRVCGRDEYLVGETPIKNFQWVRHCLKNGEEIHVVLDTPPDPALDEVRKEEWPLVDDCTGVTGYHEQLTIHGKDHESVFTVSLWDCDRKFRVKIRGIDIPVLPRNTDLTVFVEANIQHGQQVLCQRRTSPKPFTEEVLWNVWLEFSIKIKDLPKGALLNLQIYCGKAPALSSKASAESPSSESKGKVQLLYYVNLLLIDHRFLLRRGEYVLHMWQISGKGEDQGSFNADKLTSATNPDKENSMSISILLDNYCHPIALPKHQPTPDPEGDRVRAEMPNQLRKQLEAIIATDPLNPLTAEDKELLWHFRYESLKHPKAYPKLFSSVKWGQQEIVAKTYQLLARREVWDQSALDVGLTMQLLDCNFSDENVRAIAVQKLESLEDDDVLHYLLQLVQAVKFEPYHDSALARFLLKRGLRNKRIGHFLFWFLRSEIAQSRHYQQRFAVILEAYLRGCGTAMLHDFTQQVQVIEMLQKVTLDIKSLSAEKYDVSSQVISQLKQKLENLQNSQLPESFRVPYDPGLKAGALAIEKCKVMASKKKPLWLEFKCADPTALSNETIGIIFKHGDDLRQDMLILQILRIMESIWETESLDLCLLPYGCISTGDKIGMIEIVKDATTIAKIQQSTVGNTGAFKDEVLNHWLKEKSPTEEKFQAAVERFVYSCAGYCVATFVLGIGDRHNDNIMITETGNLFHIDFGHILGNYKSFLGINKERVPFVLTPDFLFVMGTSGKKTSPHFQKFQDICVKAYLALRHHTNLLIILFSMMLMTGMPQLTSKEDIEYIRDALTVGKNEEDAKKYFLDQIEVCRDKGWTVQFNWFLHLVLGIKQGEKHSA

SMILES	IC50 [1]	IC50 [2]	melting point	IC50 [3]
Cn1cc(/C=C2\Oc3cc(O)cc(O)c3C2=O)c2c(N3CCCC3)ccnc21 [Compound 46, (2Z)-4,6-dihydroxy-2-[(1-methyl-4-pyrrolidin-1-yl-1H-pyrrolo[2,3-b]pyridin-3-yl)methylene]-1-benzofuran-3(2H)-one]	1.6 nM	59 nM	312 to 315 °C	240 nM
Cn1cc(/C=C2\Oc3ccc(N)cc3C2=O)c2c(-c3ccccc3)ccnc21 [Compound 58, (2Z)-5-amino-2-[(1-methyl-4-phenyl-1H-pyrrolo[2,3-b]pyridin-3-yl)methylene]-1-benzofuran-3(2H)-one]	16.5 nM	199 nM	232 to 239 °C	966 nM
Cn1cc(/C=C2\Oc3ccc(NC(=O)OCCO)cc3C2=O)c2c(-c3ccccc3)ccnc21 [Compound 60, 2-hydroxyethyl {(2Z)-2-[(1-methyl-4-phenyl-1H-pyrrolo[2,3-b]pyridin-3-yl)methylene]-3-oxo-2,3-dihydro-1-benzofuran-5-yl}carbamate]	58.5 nM	> 10000 nM	233 to 235 °C	> 10000 nM
Cn1cc(/C=C2\Oc3cc(O)cc(O)c3C2=O)c2c(-c3ccc(Cl)nc3)ccnc21 [Compound 63, (2Z)-2-{[4-(6-chloropyridin-3-yl)-1-methyl-1H-pyrrolo[2,3-b]pyridin-3-yl]methylene}-4,6-dihydroxy-1-benzofuran-3(2H)-one]	1.5 nM	8 nM	340 °C	24 nM
Cn1cc(/C=C2\Oc3cc(O)cc(O)c3C2=O)c2c(-c3ccc(Cl)cc3)ccnc21 [Compound 64, (2Z)-2-{[4-(4-chlorophenyl)-1-methyl-1H-pyrrolo[2,3-b]pyridin-3-yl]methylene}-4,6-dihydroxy-1-benzofuran-3(2H)-one]	1.8 nM	29 nM	345 °C	81 nM
Cn1cc(/C=C2\Oc3cc(O)cc(O)c3C2=O)c2c(N3CCCCCC3)ccnc21 [Compound 65, (2Z)-2-[(4-azepan-1-yl-1-methyl-1H-pyrrolo[2,3-b]pyridin-3-yl)methylene]-4,6-dihydroxy-1-benzofuran-3(2H)-one]	0.6 nM	41 nM	297 to 300 °C	60 nM
COc1cccc(-c2ccnc3c2c(/C=C2\Oc4cc(O)cc(O)c4C2=O)cn3C)c1 [Compound 66, (2Z)-4,6-dihydroxy-2-{[4-(3-methoxyphenyl)-1-methyl-1H-pyrrolo[2,3-b]pyridin-3-yl]methylene}-1-benzofuran-3(2H)-one]	1.4 nM	32 nM	297 to 300 °C	61 nM
Cn1cc(/C=C2\Oc3cc(O)cc(O)c3C2=O)c2c(-c3ccc(CO)cc3)ccnc21 [Compound 67, (2Z)-4,6-dihydroxy-2-({4-[4-(hydroxymethyl)phenyl]-1-methyl-1H-pyrrolo[2,3-b]pyridin-3-yl}methylene)-1-benzofuran-3(2H)-one]	0.2 nM	7 nM	> 330 °C	21 nM

More lines, now with the values ahead:

IC50 [1]	IC50 [2]	melting point	IC50 [3]	SMILES
> 4000 nM	> 10000 nM	251 to 253 °C	1800 nM	Cn1cc(/C=C2\Oc3cccc(NC(=O)C(C)(C)C)c3C2=O)c2c(-c3ccccc3)ccnc21 [Compound 68, 2,2-dimethyl-N-{(2Z)-2-[(1-methyl-4-phenyl-1H-pyrrolo[2,3-b]pyridin-3-yl)methylene]-3-oxo-2,3-dihydro-1-benzofuran-4-yl}propanamide]
16 nM	62 nM	242 to 244 °C	249 nM	COc1ccc(-c2ccnc3c2c(/C=C2\Oc4cccc(O)c4C2=O)cn3C)cn1 [Compound 71, (2Z)-4-hydroxy-2-{[4-(6-methoxypyridin-3-yl)-1-methyl-1H-pyrrolo[2,3-b]pyridin-3-yl]methylene}-1-benzofuran-3(2H)-one]
0.7 nM	5 nM	276 to 286 °C	66 nM	Cn1cc(/C=C2\Oc3cc(O)cc(O)c3C2=O)c2c(-c3ccc(S(C)(=O)=O)cc3)ccnc21 [Compound 72, (2Z)-4,6-dihydroxy-2-({1-methyl-4-[4-(methylsulfonyl)phenyl]-1H-pyrrolo[2,3-b]pyridin-3-yl}methylene)-1-benzofuran-3(2H)-one]
1.6 nM	14 nM	315 to 320 °C	132 nM	Cn1cc(/C=C2\Oc3cc(O)cc(O)c3C2=O)c2c(-c3cccc(S(C)(=O)=O)c3)ccnc21 [Compound 74, (2Z)-4,6-dihydroxy-2-({1-methyl-4-[3-(methylsulfonyl)phenyl]-1H-pyrrolo[2,3-b]pyridin-3-yl}methylene)-1-benzofuran-3(2H)-one]
10.3 nM	92 nM	310 to 318 °C	319 nM	Cn1cc(/C=C2\Oc3cccc(O)c3C2=O)c2c(-c3cccc(S(C)(=O)=O)c3)ccnc21 [Compound 75, (2Z)-4-hydroxy-2-({1-methyl-4-[3-(methylsulfonyl)phenyl]-1H-pyrrolo[2,3-b]pyridin-3-yl}methylene)-1-benzofuran-3(2H)-one]
8.5 nM	41 nM	270 to 275 °C	132 nM	Cn1cc(/C=C2\Oc3cccc(O)c3C2=O)c2c(-c3ccc(CO)nc3)ccnc21 [Compound 76, (2Z)-4-hydroxy-2-({4-[6-(hydroxymethyl)pyridin-3-yl]-1-methyl-1H-pyrrolo[2,3-b]pyridin-3-yl}methylene)-1-benzofuran-3(2H)-one]
1.3 nM	85 nM	280 °C	124 nM	CC1CN(c2ccnc3c2c(/C=C2\Oc4cccc(O)c4C2=O)cn3C)CC(C)O1 (stereo not drawn) [Compound 93, (2Z)-2-{[4-(2,6-dimethylmorpholin-4-yl)-1-methyl-1H-pyrrolo[2,3-b]pyridin-3-yl]methylene}-4-hydroxy-1-benzofuran-3(2H)-one]
10.5 nM	43 nM	330 to 332 °C	351 nM	Cn1cc(/C=C2\Oc3cc(O)cc(O)c3C2=O)c2c(Oc3ccccc3)ccnc21 [Compound 94, (2Z)-4,6-dihydroxy-2-[(1-methyl-4-phenoxy-1H-pyrrolo[2,3-b]pyridin-3-yl)methylene]-1-benzofuran-3(2H)-one]
2000 nM	479 nM	325 °C	3240 nM	Cn1cc(/C=C2\Oc3cccc(O)c3C2=O)c2c(O)ccnc21 [Compound 95, (2Z)-4-hydroxy-2-[(4-hydroxy-1-methyl-1H-pyrrolo[2,3-b]pyridin-3-yl)methylene]-1-benzofuran-3(2H)-one]
3500 nM	> 10000 nM	273 to 275 °C	2230 nM	CNC(=O)Nc1cccc2c1C(=O)/C(=C/c1cn(C)c3nccc(-c4ccccc4)c13)O2 [Compound 99, 1-methyl-3-{(2Z)-2-[(1-methyl-4-phenyl-1H-pyrrolo[2,3-b]pyridin-3-yl)methylene]-3-oxo-2,3-dihydro-1-benzofuran-4-yl}urea]
